# From US20030166706A1, “Method of treating osteoarthritis” (priority 2002, published 2003)
# “Also recorded” adds a separate entry of the source. Marks after values point to notes of the source that are not given here.
# Key:
# [1] = cited from earlier work
# [2] = system: Monosodium Iodoacetate-induced Osteoarthritis in Rat; assay: Monosodium iodoacetate-induced osteoarthritis in rat model of cartilage damage (MIA Rat); type: in vivo, male Wistar rats
# [3] = 4 weeks study, subcutaneously via osmotic pumps, 10 mg/kg/day
# [4] = 4 weeks study, subcutaneously via osmotic pumps, 30 mg/kg/day
# [5] = 4 weeks study, subcutaneously via osmotic pumps, 100 mg/kg/day
smiles,measurement,setting,value
"Cc1onc(-c2ccccc2)c1-c1ccc(S(N)(=O)=O)cc1 [valdecoxib, 4-(5-methyl-3-phenyl-4-isoxazolyl)-benzenesulfonamide]",tolerability,[1]; combined analysis of various clinical studies,well tolerated
same,"overall upper gastrointestinal safety profile (ulcers, perforations, obstructions and GI bleeds)","[1]; versus conventional NSAIDs studied such as ibuprofen, diclofenac and naproxen",significantly better
"O=C(O)[C@@H]1C[C@@H]2CCCC[C@@H]2N1 [[2(S), 3a(S), 7a(S)]-2,3,3a,4,5,6,7,7a-octahydroindol-2-carboxylic acid]",degree of structural damage to the cartilage,"[2]; 10 mg/kg PO, BID, 4 weeks post-MIA",significantly decreased
same,degree of structural damage to the cartilage,"[2]; 30 mg/kg PO, BID, 4 weeks post-MIA",significantly decreased
same,IJFL (Inhibition of Joint Function Limitation) (% +/− SEM),"[2]; 2 weeks study, subcutaneously via osmotic pumps, 90 mg/kg/day, p < 0.05 versus vehicle",85 +/− 3%
same,SDCES (Significant Decrease In Cartilage Erosion Severity),[2]; [3],No
same,SIJWHLE (Significant Increase in Joints Without Hind Limb Erosion),[2]; [3],No
same,IJFL (Inhibition of Joint Function Limitation) (% +/− SEM),"[2]; 4 weeks study, subcutaneously via osmotic pumps, 10 mg/kg/day, Not statistically significant",28 +/− 14^e %
same,SDCES (Significant Decrease In Cartilage Erosion Severity),[2]; [4],No
same,SIJWHLE (Significant Increase in Joints Without Hind Limb Erosion),[2]; [4],No
same,IJFL (Inhibition of Joint Function Limitation) (% +/− SEM),"[2]; 4 weeks study, subcutaneously via osmotic pumps, 30 mg/kg/day, p < 0.05 versus vehicle",94 +/− 10%
same,SDCES (Significant Decrease In Cartilage Erosion Severity),[2]; [5],No
same,SIJWHLE (Significant Increase in Joints Without Hind Limb Erosion),[2]; [5],No
same,IJFL (Inhibition of Joint Function Limitation) (% +/− SEM),"[2]; 4 weeks study, subcutaneously via osmotic pumps, 100 mg/kg/day, p < 0.05 versus vehicle",78 +/− 3%
same,"inhibiting cartilage damage and treating osteoarthritis, from analysis of proteoglycan loss",[2]; MIA Rat data that are expected,effective
same,joint pain,"[2]; all doses, 3 to 30 mg/kg PO, BID, 4 weeks post-MIA",significantly decreased joint pain
same,preventing or treating cartilage damage,[2]; conclusion from MIA Rat data of Tables 1 and 2,effective
same,joint function limitations as defined by a reduction in differential hind-limb weight bearing,[2]; dosed orally two times per day,decrease joint function limitations
same,SIJWHLE (Significant Increase in Joints Without Hind Limb Erosion),"[2]; four week study, oral, two times per day, 3 mg/kg per dose, Cochran-Armitage Trend test",No
same,SDCES (Significant Decrease In Cartilage Erosion Severity),"[2]; four week study, oral, two times per day, 3 mg/kg per dose, Ridit Analysis",No
same,IJFL (Inhibition of Joint Function Limitation) (% +/− SEM),"[2]; four week study, oral, two times per day, 3 mg/kg per dose, p < 0.05 versus vehicle",62 +/− 6%
same,SIJWHLE (Significant Increase in Joints Without Hind Limb Erosion),"[2]; four week study, oral, two times per day, 10 mg/kg per dose, Cochran-Armitage Trend test, actual p = 0.046",Yes^f
same,SDCES (Significant Decrease In Cartilage Erosion Severity),"[2]; four week study, oral, two times per day, 10 mg/kg per dose, Ridit Analysis, 10 mg/kg",significantly decrease cartilage erosion severity and No
same,IJFL (Inhibition of Joint Function Limitation) (% +/− SEM),"[2]; four week study, oral, two times per day, 10 mg/kg per dose, p < 0.05 versus vehicle",70 +/− 9%
same,SIJWHLE (Significant Increase in Joints Without Hind Limb Erosion),"[2]; four week study, oral, two times per day, 30 mg/kg per dose, Cochran-Armitage Trend test, actual p = 0.020",Yes^e
same,IJFL (Inhibition of Joint Function Limitation) (% +/− SEM),"[2]; four week study, oral, two times per day, 30 mg/kg per dose, p < 0.05 versus vehicle",83 +/− 7%
same,SDCES (Significant Decrease In Cartilage Erosion Severity),"[2]; four week study, oral, two times per day, 30 mg/kg per dose, p < 0.05 versus vehicle (Ridit Analysis), actual p = 0.021, 30 mg/kg",significantly decrease cartilage erosion severity; also recorded: Yes^d
